Laboratory results: patent US12016943B2, “Antiperspirant or deodorant composition” (Firmenich SA, priority 2016, dated 2024)

Assays:
Format in all cases: physicochemical
[1] = Assessment of coloration of deodorant or antiperspirant formulations containing perfuming ingredients with or without Haloscent D; design: key: CO: color; COYE: yelow color; VSCOYE: very slight yellow color; SCOYE: slight yellow color; VCOYE: very yellow color; NC: no color; DECO: decoloration; CL: cloud; VCL: very cloud; WH: white; VCOBR: very brown color; COPI: ping color; conditions: perfuming ingredient 0.5 wt %, after 15 days
Description: (§1) Preparation of an Antiperspirant Spray Formulation: Using a high speed stirrer, Silica (Table 1) and Quaternium-18-Hectorite (Table 1) were added to the Isopropyl miristate (Table 1) and Cyclomethicone mixture (Table 1). Once completely swollen, Aluminium Chlorohydrate (Table 1) was added portion wise under stirring until the mixture was homogeneous and without lumps. The aerosol cans were filled with 25% Suspension of the suspension and 75% of Propane/Butane (2.5 bar).
(§2) Preparation of Deodorant Spray Formulation: All the ingredients according to the sequence of the Table 2 were mixed and dissolved. Then the aerosol cans were filled, crimp and add the propellant (Aerosol filling: 40% active solution 60% Propane/Butane 2.5 bar).
(§3) Part A was prepared by sprinkling little by little the Hydroxyethylcellulose (Table 3) in the water (Table 3) whilst rapidly stirring with the turbine. Stirring was continued until the Hydroxyethylcellulose had entirely swollen and giving a limpid gel. Then, Part B (Table 3) was poured little by little in Part A whilst continuing stirring until the whole was homogeneous. Part C was added (Table 3).
(§4) Preparation of a Deodorant Stick Formulation: All the components of Part A were weighted (Table 4) and heated up to 70-75° C. Ceteareth-25 (Table 4) was added once the other Part A ingredients were mixed and heated. Once the Ceteareth-25 was dissolved, the Stearic Acid was added. Part B was prepared by dissolving the Triclosan (Table 4) in 1,2 Propylene Glycol (Table 4). Water which has evaporated was added. Slowly under mixing, Part B was poured into part A. To stock, a plastic bag into the bucket was put in to be sealed after cooling. Moulds was filled at about 70° C.
(§5) Preparation of an Antiperspirant Stick Formulation: All the components of Part A were weighted (Table 5), heated up to 70-75° C. and mixed well. Ingredient of Part B was dispersed in Part A. The mixture was mixed and putted into a tick at 65° C.
(§6) Assessment of Coloration in the Perfuming Ingredients: To set of deodorant or antiperspirant formulations of point a) to e) has been prepared. A perfuming ingredient (0.5 wt %—Table 6, 7 and 8) was added to the first set a and a perfuming ingredient (0.5 wt %—Table 6, 7 and 8) and Haloscent® D (0.5 wt %) were added to the second set. All these formulations were placed at 3° C. and 45° C. for several weeks. All formulations were evaluated in comparison with unperfumed deodorant or antiperspirant formulation. The coloration of each formulation was assessed by a minimum of 2 panelists.

[2] = as above; design: key to Coloration of antiperspirant stick: CO: color; COYE: yelow color; VSCOYE: very slight yellow color; SCOYE: slight yellow color; VCOYE: very yellow color; NC: no color; DECO: decoloration; CL: cloud; VCL: very cloud; WH: white; VCOBR: very brown color; COPI: ping color; conditions: perfuming ingredient 0.5 wt %; for Coloration of antiperspirant stick: after 7 days
Description: as §1, §2, §3, §4, §5, §6

[3] = as above; design: key: CO: color; COYE: yellow color; SCOYE: slight yellow color; VCOYE: very yellow color; NC: no color; DECO: discoloration; CL: cloud; VCL: very cloud; WH: white; VCOBR: very brown color; COPI: ping color; conditions: perfuming ingredient 0.5 wt %, after 15 days; for Coloration of deodorant spray: DEO SPRAY + Haloscent D 0.5 wt %
Description: as §1, §2, §3, §4, §5, §6

[4] = DEO ROLL-ON + Haloscent D 0.5 wt %, 3° C.
[5] = DEO ROLL-ON + Haloscent D 0.5 wt %, 45° C.
[6] = DEO STICK + Haloscent D 0.5 wt %, 3° C.
[7] = DEO STICK + Haloscent D 0.5 wt %, 45° C.
[8] = AP SPRAY + Haloscent D 0.5 wt %, 3° C.
[9] = AP SPRAY + Haloscent D 0.5 wt %, 45° C.
[10] = DEO SPRAY + Haloscent D 0.5 wt %, 3° C.
[11] = DEO SPRAY + Haloscent D 0.5 wt %, 45° C.
[12] = AP Stick + Haloscent D 0.5 wt %, 3° C.
[13] = AP Stick + Haloscent D 0.5 wt %, 45° C.

| Molecule | Coloration of deodorant roll-on [1, 4] | Coloration of deodorant roll-on [1, 5] | Coloration of deodorant roll-on ([1]; DEO ROLL-ON, 3° C.) | Coloration of deodorant roll-on ([1]; DEO ROLL-ON, 45° C.) | Coloration of deodorant stick [1, 6] | Coloration of deodorant stick [1, 7] | Coloration of deodorant stick ([1]; DEO STICK, 3° C.) | Coloration of deodorant stick ([1]; DEO STICK, 45° C.) | Coloration of antiperspirant spray ([1]; AP SPRAY, 3° C.) | Coloration of antiperspirant spray ([1]; AP SPRAY, 45° C.) | Coloration of deodorant spray [1, 10] | Coloration of deodorant spray [1, 11] | Coloration of deodorant spray ([1]; DEO SPRAY, 3° C.) | Coloration of deodorant spray ([1]; DEO SPRAY, 45° C.) | Coloration of antiperspirant stick [2, 12] | Coloration of antiperspirant stick [2, 13] | Coloration of antiperspirant stick ([2]; AP Stick, 3° C.) | Coloration of antiperspirant stick ([2]; AP Stick, 45° C.) | Coloration of deodorant roll-on [3, 5] | other results |
| --- | --- | --- | --- | --- | --- | --- | --- | --- | --- | --- | --- | --- | --- | --- | --- | --- | --- | --- | --- | --- |
| 1-(3,3-dimethyl-1-cyclohexen-1-yl)-4-penten-1-one (A) + 1-(5,5-dimethyl-1-cyclohexen-1-yl)-4-penten-1-one (B) [DYNASCONE] | WH | SCOYE | VCL | NC | SCOYE | VCOYE | NC | VCOYE |  |  |  |  |  |  |  |  |  |  |  |  |
| CC(C)=CCCC(C)CCO (racemic) [(+−)-3,7-DIMETHYL-6-OCTEN-1-OL] | NC | NC | NC | NC | SCOYE | NC | NC | NC | NC | NC | NC | NC | NC | NC | VSCOYE | VSCOYE | DECO | DECO |  | Coloration of antiperspirant spray [1, 8]: SCOYE; Coloration of antiperspirant spray [1, 9]: SCOYE |
| O=C1CC/C=C\CCCCCCCCCC1 [EXALTENONE, (Z)-4-CYCLOPENTADECEN-1-ONE] | WH | CL | VCL | VCL | NC | NC | NC | NC | NC | NC |  |  | NC | NC |  |  |  |  |  | Coloration of antiperspirant spray [1, 8]: NC; Coloration of antiperspirant spray [1, 9]: NC; Coloration of deodorant spray ([3]; 3° C.): COYE; Coloration of deodorant spray ([3]; 45° C.): COYE |
| (+−)-(3E)-3-methyl-4-(2,6,6-trimethyl-2-cyclohexen-1-yl)-3-buten-2-one (A) + (+−)-(1E)-1-(2,6,6-trimethyl-2-cyclohexen-1-yl)-1-penten-3-one (B) [ISORALDEINE 70P] | WH |  | VCL | NC | NC | VCOYE | NC | VCOYE |  |  |  |  |  |  |  |  |  |  | COYE |  |
| (+−)-(4E)-3-METHYL-4-CYCLOPENTADECEN-1-ONE (A) + (+−)-(5E)-3-METHYL-5-CYCLOPENTADECEN-1-ONE (B) + (+−)-(5Z)-3-METHYL-5-CYCLOPENTADECEN-1-ONE (C) [MUSCENONE DELTA] | WH |  | VCL | SCOYE | NC | NC | NC | NC | NC | NC | NC | NC | NC | NC |  |  |  |  | COYE | Coloration of antiperspirant spray [3, 8]: COYE; Coloration of antiperspirant spray [3, 9]: COYE |

Now from value to molecule, other results behind:

| Coloration of deodorant roll-on [1, 4] | Coloration of deodorant roll-on [1, 5] | Coloration of deodorant roll-on ([1]; DEO ROLL-ON, 3° C.) | Coloration of deodorant roll-on ([1]; DEO ROLL-ON, 45° C.) | Coloration of deodorant stick [1, 6] | Coloration of deodorant stick [1, 7] | Coloration of deodorant stick ([1]; DEO STICK, 3° C.) | Coloration of deodorant stick ([1]; DEO STICK, 45° C.) | Coloration of antiperspirant spray ([1]; AP SPRAY, 3° C.) | Coloration of antiperspirant spray ([1]; AP SPRAY, 45° C.) | Coloration of deodorant spray [1, 10] | Coloration of deodorant spray [1, 11] | Coloration of deodorant spray ([1]; DEO SPRAY, 3° C.) | Coloration of deodorant spray ([1]; DEO SPRAY, 45° C.) | Coloration of antiperspirant stick [2, 12] | Coloration of antiperspirant stick [2, 13] | Coloration of antiperspirant stick ([2]; AP Stick, 3° C.) | Coloration of antiperspirant stick ([2]; AP Stick, 45° C.) | Coloration of deodorant roll-on [3, 5] | Molecule | other results |
| --- | --- | --- | --- | --- | --- | --- | --- | --- | --- | --- | --- | --- | --- | --- | --- | --- | --- | --- | --- | --- |
| NC |  | NC | NC | NC | NC | NC | SCOYE |  |  |  |  |  |  | COPI | VSCOYE | DECO | VSCOYE |  | c1ccc2[nH]ccc2c1 [2,3-BENZOPYRROLE] | Coloration of deodorant roll-on ([2]; DEO ROLL-ON + Haloscent D 0.5 wt %, 45° C., after 15 days): VSCOYE |
| NC | NC | NC | NC | SCOYE | NC | NC | NC |  |  |  |  |  |  |  |  |  |  |  | C=C(CC)CCCC(C)(C)O [2-METHYL-6-METHYLIDENEOCTAN-2-OL] |  |
| WH | VCL | VCL | NC | NC | NC | NC | NC |  |  |  |  |  |  | VSCOPI | VSCOPI | VSCOPI | NC |  | CCCCCOC(=O)c1ccccc1O [AMYLE SALICYLATE, PENTYL 2-HYDROXYBENZOATE] |  |
| NC | CO | NC |  | COPI | VCOBR | COPI | VCOBR |  | SCOYE | CO | CO | CO | CO |  |  |  |  |  | CC(C)c1ccc2c(c1)OCC(=O)CO2 [CALONE, 7-ISOPROPYL-2H,4H-1,5-BENZODIOXEPIN-3-ONE] | Coloration of antiperspirant spray [3, 8]: COYE; Coloration of antiperspirant spray [3, 9]: COYE; Coloration of antiperspirant spray ([3]; AP SPRAY, 3° C.): COYE; Coloration of deodorant roll-on ([3]; DEO ROLL-ON, 45° C.): DECO |
| VCL |  | VCL | NC | NC | NC | NC | NC |  |  |  |  |  |  |  |  |  |  | COYE | CCC(=O)OCC(=O)O[C@@H](C)[C@@H]1CCCC(C)(C)C1 [ROMANDOLIDE, 2-{(1S)-1-[(1R)-3,3-dimethylcyclohexyl]ethoxy}-2-oxoethyl propionate] |  |
